# Results: patent US4337199A, “Antibiotic β-lactam compounds, production thereof, and their use as antimicrobial agent” (Sanraku-Ocean Co., Ltd., priority 1978, dated 1982)
# Assays:
# [1] = system: Staphylococcus aureus Smith strain; test: Infection treating test; type: in vivo, Staphylococcus aureus (in ddy male mice); details: sc, 2 h, mice infected intraperitoneally, 5×10^5 cells per mouse, subcutaneous, two hours after infection, read-out: CD50 (the source's name)
# Protocol: The in vivo activities of the compounds of formula (I-d) were determined by using mice (five per group, ddy male mice, Shizuoka) which had been intraperitoneally infected with Staphylococcus aureus Smith strain in an amount of 5×10^5 cells per mouse. Two hours after the infection, an injection containing a sodium salt of each of the compounds of formula (I-d) was subcutaneously administered to the mice.
# Escherichia coli K-12 = test: minimum inhibitory concentration, agar dilution assay; type: cell-based; details: K12, agar dilution, 35° C., 20 hours, read-out: minimum inhibitory concentration
# Protocol: (§1) The antibiotic activities shown in Tables I-1 to I-8 above were determined in the following manner.
# (§2) The minimum inhibitory concentrations of the compounds of formula (I-a-1) or (I-b-1) in Tables I-1 to I-7 and the known compounds in Table I-8 on the various microorganisms shown in the above tables were measured by an agar dilution assay method using a brain heart infusion agar medium "Difco" (a product of Difco Laboratories Inc.)
# (§3) A sample of the test compound was dissolved in sterile distilled water and diluted to prepare a two-fold dilution series of the compound solution. In a petri plate of 9 cm diameter, 1 ml of the compound solution was added to 9 ml of molten sterile heart infusion agar medium (Difco Laboratories Inc.) at about 60° C. to prepare the compound-containing agar plate. An overnight culture of each test organism indicated in the above table which was prepared by stationary cultivation in Trypto-Soy broth (Eiken Chemi. Co., Ltd.) at 35° C. for 18 to 20 hours, was diluted with the Trypto-Soy broth to give approximately 10^8 cells/ml and the diluted inoculum was inoculated onto the compound-containing agar plates. After cultivating the plates at 35° C. for 20 hours, the growth of the organism was observed. The minimum concentration of the compound at which no growth of the microorganism was noted was determined, and defined as the minimum inhibitory concentration of the test compound.
# Proteus rettgeri P7 = test: as above; type: cell-based; details: Providencia rettgeri, P7; agar dilution, 35° C., 20 hours; read-out: minimum inhibitory concentration
# Protocol: as §1, §2, §3
# Escherichia coli RGN 823 = test: as above; type: cell-based; details: RGN823, agar dilution, 35° C., 20 hours, read-out: minimum inhibitory concentration
# Protocol: as §1, §2, §3
# [2] = system: Staphylococcus aureus Smith; test: as above; type: cell-based; details: agar dilution, 35° C., 20 hours, read-out: minimum inhibitory concentration
# Protocol: as §1, §2, §3
# Proteus mirabilis P6 = test: as above; type: cell-based; details: P6, agar dilution, 35° C., 20 hours, read-out: minimum inhibitory concentration
# Protocol: as §1, §2, §3
# Sarcina lutea = test: as above; type: cell-based; details: Micrococcus luteus; agar dilution, 35° C., 20 hours; read-out: minimum inhibitory concentration
# Protocol: as §1, §2, §3
# Serratia marcescens S18 = test: as above; type: cell-based; details: S18, agar dilution, 35° C., 20 hours, read-out: minimum inhibitory concentration
# Protocol: as §1, §2, §3
# [3] = system: Staphylococcus aureus FDA 209P; test: as above; type: cell-based; details: FDA209P, agar dilution, 35° C., 20 hours, read-out: minimum inhibitory concentration
# Protocol: as §1, §2, §3
# [4] = system: Bacillus subtilis ATCC 6633; test: as above; type: cell-based; details: ATCC6633, agar dilution, 35° C., 20 hours, read-out: minimum inhibitory concentration
# Protocol: as §1, §2, §3
# [5] = system: Pseudomonas aeruginosa IFO3445; test: as above; type: cell-based; details: IFO3445, agar dilution, 35° C., 20 hours, read-out: minimum inhibitory concentration
# Protocol: as §1, §2, §3
# [6] = system: Comamonas terrigena B-996; test: as above; type: cell-based; details: B996, agar dilution, 35° C., 20 hours, read-out: minimum inhibitory concentration
# Protocol: as §1, §2, §3
# Alcaligenes faecalis A 1 = test: as above; type: cell-based; details: A1, agar dilution, 35° C., 20 hours, read-out: minimum inhibitory concentration
# Protocol: as §1, §2, §3
# Proteus sp. P22 = test: as above; type: cell-based; details: agar dilution, 35° C., 20 hours; read-out: minimum inhibitory concentration
# Protocol: as §1, §2, §3
# [7] = system: Klebsiella pneumoniae K-13; test: as above; type: cell-based; details: K13, agar dilution, 35° C., 20 hours, read-out: minimum inhibitory concentration
# Protocol: as §1, §2, §3
# Enterobacter sp. E8 = test: as above; type: cell-based; details: SP.E8, agar dilution, 35° C., 20 hours, read-out: minimum inhibitory concentration
# Protocol: as §1, §2, §3
# [8] = system: Staphylococcus epidermidis; test: as above; type: cell-based; details: agar dilution, 35° C., 20 hours, read-out: minimum inhibitory concentration
# Protocol: as §1, §2, §3
# Providencia sp. P8 = test: as above; type: cell-based; details: SP.P8, agar dilution, 35° C., 20 hours, read-out: minimum inhibitory concentration
# Protocol: as §1, §2, §3
# [9] = system: Citrobacter freundii GN 346; test: as above; type: cell-based; details: GN346, agar dilution, 35° C., 20 hours, read-out: minimum inhibitory concentration
# Protocol: as §1, §2, §3
# [10] = system: Pseudomonas aeruginosa NCTC10490; test: as above; type: cell-based; details: NCTC10490, agar dilution, 35° C., 20 hours, read-out: minimum inhibitory concentration
# Protocol: as §1, §2, §3
# [11] = system: Enterobacter aerogenes E19; test: as above; type: cell-based; details: Klebsiella aerogenes, E19; agar dilution, 35° C., 20 hours; read-out: minimum inhibitory concentration
# Protocol: as §1, §2, §3
# Serratia marcescens T55 = test: as above; type: cell-based; details: T55, agar dilution, 35° C., 20 hours, read-out: minimum inhibitory concentration
# Protocol: as §1, §2, §3
# [12] = system: Staphylococcus aureus Russell; test: as above; type: cell-based; details: agar dilution, 35° C., 20 hours, read-out: minimum inhibitory concentration
# Protocol: as §1, §2, §3
# Proteus vulgaris GN76 = test: as above; type: cell-based; details: GN76, agar dilution, 35° C., 20 hours, read-out: minimum inhibitory concentration
# Protocol: as §1, §2, §3
# Enterobacter cloacae 45 = test: as above; type: cell-based; details: Enterobacter cloacae, 45; agar dilution, 35° C., 20 hours; read-out: minimum inhibitory concentration
# Protocol: as §1, §2, §3
SMILES,MIC (Escherichia coli K-12) [µg/mL],MIC (Proteus rettgeri P7) [µg/mL],MIC (Escherichia coli RGN 823) [µg/mL],MIC [2] [µg/mL],MIC (Proteus mirabilis P6) [µg/mL],MIC (Sarcina lutea) [ng/mL],MIC (Serratia marcescens S18) [µg/mL],MIC [3] [ng/mL],MIC [4] [µg/mL],MIC [5] [µg/mL],MIC [6] [ng/mL],MIC (Alcaligenes faecalis A 1) [µg/mL],MIC (Proteus sp. P22) [µg/mL],MIC [7] [µg/mL],MIC (Enterobacter sp. E8) [µg/mL],MIC [8] [µg/mL],MIC (Providencia sp. P8) [µg/mL],MIC [9] [µg/mL],MIC [10] [µg/mL],MIC [11] [µg/mL],also measured
"CC(O)C1C(=O)N2C(C(=O)O)=C(Sc3ccncc3)CC12 (stereo not drawn) [Example 60, 5,6-cis-3-(4-Pyridylthio)-6-(1-hydroxyethyl)-7-oxo-1-azabicyclo[3.2.0]hept-2-ene-2-carboxylic acid]",0.05,0.78,6.25,< 0.007,0.39,< 7,50,< 7,< 0.007,1.56,< 7,< 0.007,50,25,0.025,< 0.007,0.2,6.25,1.56,1.56,ED50 [1]: 0.125 mg/kg; MIC (Serratia marcescens T55): 25 µg/mL; MIC [12]: < 0.007 µg/mL; MIC (Proteus vulgaris GN76): 50 µg/mL; MIC (Enterobacter cloacae 45): 6.25 µg/mL
CC(O)C1C(=O)N2C(C(=O)O)=C(Sc3ccccn3)CC12 (stereo not drawn),0.39,3.13,3.13,0.013,0.39,< 7,12.5,< 7,< 0.007,12.5,< 7,6.25,12.5,25,0.78,0.05,0.2,6.25,50,6.25,MIC (Serratia marcescens T55): 25 µg/mL; MIC [12]: 0.013 µg/mL; MIC (Proteus vulgaris GN76): 12.5 µg/mL; MIC (Enterobacter cloacae 45): 12.5 µg/mL
"CC(=O)NCCSC1=C(C(=O)O)N2C(=O)C(C(C)O)C2C1 (stereo not drawn) [PS-3B . Na, reference compound]",–,–,–,–,–,–,–,–,–,–,–,–,–,–,–,–,–,–,–,–,ED50 [1]: 2 mg/kg
"CC(O)C1C(=O)N2C(C(=O)O)=C(Sc3ncccn3)CC12 (stereo not drawn) [Example 64, 5,6-cis-3-(2-Pyrimidinylthio)-6-(1-hydroxyethyl)-7-oxo-1-azabicyclo[3.2.0]hept-2-ene-2-carboxylic acid]",0.1,1.56,1.56,0.025,0.78,< 7,12.5,< 7,< 0.007,25,< 7,0.05,25,25,0.013,0.025,0.2,6.25,25,3.13,ED50 [1]: 0.25 mg/kg; MIC (Serratia marcescens T55): 12.5 µg/mL; MIC [12]: 0.013 µg/mL; MIC (Proteus vulgaris GN76): 6.25 µg/mL; MIC (Enterobacter cloacae 45): 12.5 µg/mL

# Second part, led by results:
MIC (Escherichia coli K-12) [µg/mL],MIC (Proteus rettgeri P7) [µg/mL],MIC (Escherichia coli RGN 823) [µg/mL],MIC [2] [µg/mL],MIC (Proteus mirabilis P6) [µg/mL],MIC (Sarcina lutea) [ng/mL],MIC (Serratia marcescens S18) [µg/mL],MIC [3] [ng/mL],MIC [4] [µg/mL],MIC [5] [µg/mL],MIC [6] [ng/mL],MIC (Alcaligenes faecalis A 1) [µg/mL],MIC (Proteus sp. P22) [µg/mL],MIC [7] [µg/mL],MIC (Enterobacter sp. E8) [µg/mL],MIC [8] [µg/mL],MIC (Providencia sp. P8) [µg/mL],MIC [9] [µg/mL],MIC [10] [µg/mL],MIC [11] [µg/mL],SMILES,also measured
50,100,50,0.2,> 100,13,> 100,13,0.1,25,7,6.25,100,> 100,> 100,0.025,25,> 100,6.25,> 100,CC(C)C1C(=O)N2C(C(=O)O)=C(Sc3ccccc3)CC12 (stereo not drawn),MIC (Serratia marcescens T55): > 100 µg/mL; MIC [12]: 0.025 µg/mL; MIC (Proteus vulgaris GN76): > 100 µg/mL; MIC (Enterobacter cloacae 45): > 100 µg/mL
180,180,180,0.04,45,< 10,> 180,< 10,0.09,180,< 10,5.6,90,> 180,> 180,0.04,180,> 180,22.5,> 180,"CCC1C(=O)N2C(C(=O)O)=C(SC3CCCCC3)CC12 (stereo not drawn) [Example 67, Sodium 3-cyclohexylthio-6-ethyl-7-oxo-1-azabicyclo[3.2.0.]hept-2-ene-2-carboxylate]",MIC (Serratia marcescens T55): > 180 µg/mL; MIC [12]: < 0.01 µg/mL; MIC (Proteus vulgaris GN76): 180 µg/mL; MIC (Enterobacter cloacae 45): > 180 µg/mL
